# Assay results published in PubChem BioAssay AID1259407 (Chemical Carcinogenesis Research Information System (CCRIS), 2018).
# The source made the active and inactive calls. The rule behind the calls is not given here.
# System: CCRIS mutagenicity, Ames/micronucleus/aberration tests
# Assay: CCRIS mutagenicity studies
# [1] = Test System: AMES SALMONELLA TYPHIMURIUM, Strain/Indicator: TA100, Metabolic Activation: NONE, Method: PREINCUBATION
# [2] = Test System: AMES SALMONELLA TYPHIMURIUM, Strain/Indicator: TA98, Metabolic Activation: NONE, Method: STANDARD PLATE
# [3] = Test System: AMES SALMONELLA TYPHIMURIUM, Strain/Indicator: TA98, Metabolic Activation: RAT, LIVER, S-9, AROCLOR 1254, Method: STANDARD PLATE
# [4] = Test System: AMES SALMONELLA TYPHIMURIUM, Strain/Indicator: TA100, Metabolic Activation: NONE, Method: STANDARD PLATE
# [5] = Test System: AMES SALMONELLA TYPHIMURIUM, Strain/Indicator: TA100, Metabolic Activation: RAT, LIVER, S-9, AROCLOR 1254, Method: STANDARD PLATE
# [6] = Test System: AMES SALMONELLA TYPHIMURIUM, Strain/Indicator: TA1535, Metabolic Activation: NONE, Method: STANDARD PLATE
compound,measurement,setting,value
N[C@@H](CCC(=O)N[C@@H](CSc1ccc([N+](=O)[O-])cc1[N+](=O)[O-])C(=O)NCC(=O)O)C(=O)O,mutagenic call,"Test System: AMES SALMONELLA TYPHIMURIUM, Strain/Indicator: TA100(NR), Metabolic Activation: NONE, Method: PREINCUBATION",inactive; negative
same,mutagenic call,"Test System: AMES SALMONELLA TYPHIMURIUM, Strain/Indicator: TA100/GSH-, Metabolic Activation: NONE, Method: PREINCUBATION",active; positive
same,mutagenic call,[1],inactive; negative
CSCC[C@H](NC(=O)[C@@H](N)Cc1c[nH]c2ccccc12)C(=O)N[C@@H](CC(=O)O)C(=O)N[C@@H](Cc1ccccc1)C(N)=O,mutagenic call,[2],inactive; negative
same,mutagenic call,[3],inactive; negative
same,mutagenic call,[4],inactive; negative
same,mutagenic call,[5],inactive; negative
same,mutagenic call,[6],inactive; negative
same,mutagenic call,"Test System: AMES SALMONELLA TYPHIMURIUM, Strain/Indicator: TA1535, Metabolic Activation: RAT, LIVER, S-9, AROCLOR 1254, Method: STANDARD PLATE",inactive; negative
same,mutagenic call,"Test System: AMES SALMONELLA TYPHIMURIUM, Strain/Indicator: TA1537, Metabolic Activation: NONE, Method: STANDARD PLATE",inactive; negative
same,mutagenic call,"Test System: AMES SALMONELLA TYPHIMURIUM, Strain/Indicator: TA1537, Metabolic Activation: RAT, LIVER, S-9, AROCLOR 1254, Method: STANDARD PLATE",inactive; negative
CC(=O)Nc1ccc2c(=O)c(=O)c3cccc4ccc1c2c43,mutagenic call,"Test System: AMES SALMONELLA TYPHIMURIUM, Strain/Indicator: TA98(1,8-DNP6), Metabolic Activation: NONE, Method: STANDARD PLATE",inactive; negative
same,mutagenic call,"Test System: AMES SALMONELLA TYPHIMURIUM, Strain/Indicator: TA98(1,8-DNP6), Metabolic Activation: RAT, LIVER, S-9, AROCLOR 1254, Method: STANDARD PLATE",active; positive
same,mutagenic call,[2],inactive; negative
same,mutagenic call,[3],active; positive
same,mutagenic call,"Test System: AMES SALMONELLA TYPHIMURIUM, Strain/Indicator: YG1024, Metabolic Activation: NONE, Method: STANDARD PLATE",inactive; negative
same,mutagenic call,"Test System: AMES SALMONELLA TYPHIMURIUM, Strain/Indicator: YG1024, Metabolic Activation: RAT, LIVER, S-9, AROCLOR 1254, Method: STANDARD PLATE",active; positive
Fc1ccc2c3c(cccc13)-c1cc3ccccc3cc1-2,mutagenic call,[5],active; positive
CCOC(=O)CNC(=O)CCCCSc1ncnc2nc[nH]c12,mutagenic call,"Test System: AMES SALMONELLA TYPHIMURIUM, Strain/Indicator: TA97, Metabolic Activation: NONE, Method: STANDARD PLATE",inactive; negative
same,mutagenic call,"Test System: AMES SALMONELLA TYPHIMURIUM, Strain/Indicator: TA97, Metabolic Activation: RAT, LIVER, S-9, PHENOBARBITAL AND ALPHA-NAPHTHOFLAVONE, Method: STANDARD PLATE",inactive; negative
same,mutagenic call,[2],inactive; negative
same,mutagenic call,"Test System: AMES SALMONELLA TYPHIMURIUM, Strain/Indicator: TA98, Metabolic Activation: RAT, LIVER, S-9, PHENOBARBITAL AND ALPHA-NAPHTHOFLAVONE, Method: STANDARD PLATE",inactive; negative
same,mutagenic call,[4],inactive; negative
same,mutagenic call,"Test System: AMES SALMONELLA TYPHIMURIUM, Strain/Indicator: TA100, Metabolic Activation: RAT, LIVER, S-9, PHENOBARBITAL AND ALPHA-NAPHTHOFLAVONE, Method: STANDARD PLATE",inactive; negative
same,mutagenic call,[6],inactive; negative
same,mutagenic call,"Test System: AMES SALMONELLA TYPHIMURIUM, Strain/Indicator: TA1535, Metabolic Activation: RAT, LIVER, S-9, PHENOBARBITAL AND ALPHA-NAPHTHOFLAVONE, Method: STANDARD PLATE",inactive; negative
CC(O)c1ccccc1 (centres undefined),mutagenic call,"Test System: AMES SALMONELLA TYPHIMURIUM, Strain/Indicator: TA98, Metabolic Activation: HAMSTER, LIVER, S-9, AROCLOR 1254 (10%), Method: PREINCUBATION",inactive; negative
same,mutagenic call,"Test System: AMES SALMONELLA TYPHIMURIUM, Strain/Indicator: TA98, Metabolic Activation: HAMSTER, LIVER, S-9, AROCLOR 1254, Method: PREINCUBATION",inactive; negative
same,mutagenic call,"Test System: AMES SALMONELLA TYPHIMURIUM, Strain/Indicator: TA98, Metabolic Activation: NONE, Method: PREINCUBATION",inactive; negative
same,mutagenic call,"Test System: AMES SALMONELLA TYPHIMURIUM, Strain/Indicator: TA98, Metabolic Activation: RAT, LIVER, S-9, AROCLOR 1254 (10%), Method: PREINCUBATION",inactive; negative
same,mutagenic call,"Test System: AMES SALMONELLA TYPHIMURIUM, Strain/Indicator: TA98, Metabolic Activation: RAT, LIVER, S-9, AROCLOR 1254, Method: PREINCUBATION",inactive; negative
same,mutagenic call,"Test System: AMES SALMONELLA TYPHIMURIUM, Strain/Indicator: TA100, Metabolic Activation: HAMSTER, LIVER, S-9, AROCLOR 1254 (10%), Method: PREINCUBATION",inactive; negative
same,mutagenic call,"Test System: AMES SALMONELLA TYPHIMURIUM, Strain/Indicator: TA100, Metabolic Activation: HAMSTER, LIVER, S-9, AROCLOR 1254, Method: PREINCUBATION",inactive; negative
same,mutagenic call,[1],inactive; negative
same,mutagenic call,"Test System: AMES SALMONELLA TYPHIMURIUM, Strain/Indicator: TA100, Metabolic Activation: RAT, LIVER, S-9, AROCLOR 1254 (10%), Method: PREINCUBATION",inactive; negative
same,mutagenic call,"Test System: AMES SALMONELLA TYPHIMURIUM, Strain/Indicator: TA100, Metabolic Activation: RAT, LIVER, S-9, AROCLOR 1254, Method: PREINCUBATION",inactive; negative
same,mutagenic call,"Test System: AMES SALMONELLA TYPHIMURIUM, Strain/Indicator: TA1535, Metabolic Activation: HAMSTER, LIVER, S-9, AROCLOR 1254 (10%), Method: PREINCUBATION",inactive; negative
same,mutagenic call,"Test System: AMES SALMONELLA TYPHIMURIUM, Strain/Indicator: TA1535, Metabolic Activation: HAMSTER, LIVER, S-9, AROCLOR 1254, Method: PREINCUBATION",inactive; negative
same,mutagenic call,"Test System: AMES SALMONELLA TYPHIMURIUM, Strain/Indicator: TA1535, Metabolic Activation: NONE, Method: PREINCUBATION",inactive; negative
same,mutagenic call,"Test System: AMES SALMONELLA TYPHIMURIUM, Strain/Indicator: TA1535, Metabolic Activation: RAT, LIVER, S-9, AROCLOR 1254 (10%), Method: PREINCUBATION",inactive; negative
same,mutagenic call,"Test System: AMES SALMONELLA TYPHIMURIUM, Strain/Indicator: TA1535, Metabolic Activation: RAT, LIVER, S-9, AROCLOR 1254, Method: PREINCUBATION",inactive; negative
same,mutagenic call,"Test System: AMES SALMONELLA TYPHIMURIUM, Strain/Indicator: TA1537, Metabolic Activation: HAMSTER, LIVER, S-9, AROCLOR 1254 (10%), Method: PREINCUBATION",inactive; negative
same,mutagenic call,"Test System: AMES SALMONELLA TYPHIMURIUM, Strain/Indicator: TA1537, Metabolic Activation: HAMSTER, LIVER, S-9, AROCLOR 1254, Method: PREINCUBATION",inactive; negative
same,mutagenic call,"Test System: AMES SALMONELLA TYPHIMURIUM, Strain/Indicator: TA1537, Metabolic Activation: NONE, Method: PREINCUBATION",inactive; negative
same,mutagenic call,"Test System: AMES SALMONELLA TYPHIMURIUM, Strain/Indicator: TA1537, Metabolic Activation: RAT, LIVER, S-9, AROCLOR 1254 (10%), Method: PREINCUBATION",inactive; negative
same,mutagenic call,"Test System: AMES SALMONELLA TYPHIMURIUM, Strain/Indicator: TA1537, Metabolic Activation: RAT, LIVER, S-9, AROCLOR 1254, Method: PREINCUBATION",inactive; negative
same,mutagenic call,"Test System: MOUSE LYMPHOMA, Strain/Indicator: L5178Y (TK+/TK-), Metabolic Activation: NONE, Method: SUSPENSION/PLATE",active; positive
O=C(Nc1ccccc1)C1CO1 (centres undefined),mutagenic call,"Test System: AMES SALMONELLA TYPHIMURIUM, Strain/Indicator: TA100, Metabolic Activation: MOUSE, LIVER, S-9, AROCLOR 1254, Method: STANDARD PLATE",active; positive
same,mutagenic call,[4],active; positive
